Laboratory results as given in patent US20050282745A1, “Non-mammalian GnRH analogs and uses thereof in regulation of fertility and pregnancy” (priority 2001, published 2005).
Non-standard residues stand in square brackets, D forms with d. Residues, ends and D or L forms follow the SMILES beside them. *: point of attachment. dPhe(4-Cl) = N[C@H](Cc1ccc(Cl)cc1)C(=O)O; d2Nal = N[C@H](Cc1ccc2ccccc2c1)C(=O)O; Lys(iPr) = CC(C)NCCCC[C@H](N)C(=O)O; d3Pal = N[C@H](Cc1cccnc1)C(=O)O; pGlu = O=C1CC[C@@H](C(=O)O)N1; Nicotinoyl = O=C(c1cccnc1)*

Columns and labels:
[1] = tested on: chorionic peptidase-1 (C-ase-1); experiment: C-ase-1 enzyme activity assay, competition for degradation of GnRH; details: for relative potency of inhibition of C-ase-1 degradation of GnRH, compared to GnRH: Example V; for Ki: competition for degradation of mammalian GnRH
Protocol: (§1) Using the incubation system developed for the C-ase-1 activity, the degradation of each analog was tested. […] These studies were done using the C-ase-1 enzyme activity assay as described previously. […] The product formed was calculated by subtraction, and its inverse plotted against the inverse of the original substrate concentrations to determine the nature of the competition. The Ki was to be determined by plotting the inverse of the product that formed verses the inhibitor used.
(§2) The concentration of the product of the degraded GnRH was quantified by subtracting the remaining mammalian GnRH from the starting concentrations of mammalian GnRH. […] The Ks for the degradation of mammalian GnRH was calculated from the x axis intercept using Lineweaver-Burke double reciprocal plot of the concentration of the product formed versus the concentration of the substrate used.
(§3) The reaction was stopped by heating at 85° C. for 10 minutes. The remaining GnRH was determined using a specific radioimmunoassay. The formation of product, i.e., the N-terminal nonapeptide of GnRH, was calculated by subtraction and its inverse was plotted versus the inverse of the initial substrate to determine the Ks of the reaction. […] The relative potency of each analog was compared.
(§4) Using the incubation system developed for the C-ase-1 activity, the degradation of each analog was studied. […] The inverse of the product was plotted against the inverse of the original substrate concentrations to determine Ks of the competition. The Ki was determined by plotting the inverse of the product formed verses the inhibitor used.

[2] = tested on: chorionic peptidase-1 (C-ase-1)
Protocol: as §1, §2, §3, §4

pregnant baboons = experiment: Pregnant baboons, mini-pump days 14-21 post ovulation; type: in vivo, baboon
Protocol: Mammalian GnRH analogs, ZOLADEX™ (Goserelin acetate) and Organon 30276, were administered to pregnant baboons via mini-pump on days 14 through 21 post ovulation. The hormonal release and pregnancy outcome was compared to saline treated controls. […] In a dose-response saline-controlled study using very high doses of mammalian GnRH analog, a small stimulation of hCG in very early pregnancy was observed by the present inventor.

[3] = tested on: human placental GnRH receptor; experiment: Placental GnRH receptor binding, 125I-Buserelin label; details: for receptor activity/potency compared with GnRH: 125I-Buserelin, Example VI
Protocol: The newly synthesized non-mammalian GnRH analogs and other commercially available mammalian GnRH analogs were used in placental receptors binding and enzyme stability study described here. […] GnRH receptors were purified from the membrane fractions from placentas. The purification procedure for the placental GnRH receptor was performed using a modification of the method described by Bramley et al., which reference is specifically incorporated herein by reference for the purpose. Addition of enzyme inhibitors for the endogenous C-ase-1 were used as well as agents for receptor stabilization. Initially, receptor-binding assays using ^125I-Buserelin as label were performed. The competitive binding of each of the analogs was studied over a dose range of 10^−11 to 10^−6 M. Incubation was at room temperature and receptor bound label was precipitated with polyethylene glycol. Specific and non-specific binding was determined. The data was subjected to Scatchard analysis. The non-mammalian GnRH analogs' ability to bind to the placental GnRH receptor was compared to that for synthetic mammalian GnRH (SEQ ID NO: 5), Buserelin (SEQ ID NO: 10) and other mammalian analogs. […] This way, the receptor affinity for that analog could be precisely determined. Receptors from three different term placentas were used to study each of these analogs. […] Bramley T A, McPhie C A, Menzies G S 1994 Human placental gonadotropin-releasing hormone (GnRH) binding sites: 111. […] Placenta 15:733-745.
In these and additional studies, placental GnRH receptors were purified from human term placentas after homogenization in 40 mM Tris (pH 7.4) and filtered through cheesecloth, followed by an initial centrifugation at 1,000×g for 10 minutes. The resulting supernatant was, again, centrifuged at 35,000×g for 30 minutes and the membrane pellet was collected and resuspended in Tris buffer with 0.3 M sucrose. The protein concentration was determined. Membranes were stored frozen at −20 C until use. Before use, placental membranes were diluted to 5,000 μg/mL with Tris buffer containing 0.5% BSA and 50 U/mL bacitracin. […] Following incubation at room temperature for 4 hours, the bound and free hormones were separated using polyethylene glycol precipitation, followed by centrifugation. The binding affinity for each GnRH isoform or analog was calculated using the double reciprocal plot of bound versus free ligand. Each study was done using three different human term placental tissues.
Receptor assays were performed by incubating human term placental GnRH receptors with varying concentrations of GnRH or its analogs in the presence of ^125I-Buserelin. The reaction was stopped and the bound hormone precipitated with polyethylene glycol.

placental homogenate = experiment: Degradation in whole placental homogenate; type: in vitro ADME, human
Protocol: Studies using whole placental homogenate were also performed. […] The competition by the newly synthesized non-mammalian GnRH analogs as compared to mammalian GnRH (SEQ ID NO: 5) was then studied to confirm the C-ase-1 studies above. […] (FIG. 3)
The stability of these analogs in the present of whole placental homogenates was examined. The ethylamide derivative has a slowed degradation rate as compared to GnRH, but can be degraded.

CC(=O)N[C@H](Cc1ccc2ccccc2c1)C(=O)N[C@H](Cc1ccc(Cl)cc1)C(=O)N[C@H](Cc1cccnc1)C(=O)N[C@@H](CO)C(=O)N[C@@H](CCCCNC(=O)c1cccnc1)C(=O)N[C@H](CCCCNC(=O)c1cccnc1)C(=O)N[C@@H](CC(C)C)C(=O)N[C@@H](CCCCNC(C)C)C(=O)N1CCC[C@H]1C(=O)N[C@H](C)C(N)=O [Antide] (Ac-[d2Nal][dPhe(4-Cl)][d3Pal]SK(Nicotinoyl)[dK](Nicotinoyl)L[Lys(iPr)]P[dA]-NH2; N-terminus and C-terminus assumed)
relative potency of inhibition of C-ase-1 degradation of GnRH, compared to GnRH [1]: 0.6
potency as competitor compared with salmon or chicken II GnRHs ([1]; Example VII): two-fold more potent
potency as competitor for GnRH degradation by C-ase-1 compared with GnRH ([1]; Example VII): three-fold less potent
degradation by / competition for C-ase-1, in words [2]: degraded with reduced activity

CCNC(=O)[C@@H]1CCCN1C(=O)[C@H](Cc1ccc(O)cc1)NC(=O)[C@H](Cc1c[nH]c2ccccc12)NC(=O)[C@@H](CCCNC(=N)N)NC(=O)[C@H](Cc1c[nH]cn1)NC(=O)[C@H](CO)NC(=O)[C@H](Cc1c[nH]c2ccccc12)NC(=O)[C@H](Cc1c[nH]cn1)NC(=O)[C@@H]1CCC(=O)N1 [D-Arg-chicken II GnRH-ethylamide, D-Arg (6)-chicken II GnRH-des-Gly (10)-ethylamide] ([pGlu]HWSH[dR]WYP-NHEt)
Ki ([1]; Example III): > 200 nM

CCNC(=O)[C@@H]1CCCN1C(=O)[C@H](CCCNC(=N)N)NC(=O)[C@H](CC(C)C)NC(=O)[C@@H](CC(C)C)NC(=O)[C@H](Cc1ccc(O)cc1)NC(=O)[C@H](CO)NC(=O)[C@H](Cc1c[nH]c2ccccc12)NC(=O)[C@H](Cc1c[nH]cn1)NC(=O)[C@@H]1CCC(=O)N1 [MAMMALIAN D-LEU (6), EA (10), des-Gly^10, D-Leu^6-GnRH-ethylamide]
degradation by / competition for C-ase-1, in words [2]: potent competitive inhibitors

CC(C)C[C@H](NC(=O)[C@@H](COC(C)(C)C)NC(=O)[C@H](Cc1ccc(O)cc1)NC(=O)[C@H](CO)NC(=O)[C@H](Cc1c[nH]c2ccccc12)NC(=O)[C@H](Cc1cnc[nH]1)NC(=O)[C@@H]1CCC(=O)N1)C(=O)N[C@@H](CCCNC(=N)N)C(=O)N1CCC[C@H]1C(=O)NNC(N)=O [ZOLADEX, Goserelin acetate]
abortions (pregnant baboons; in vivo): not consistently effected
pregnancy outcome (pregnant baboons; in vivo): in most animals pregnancy outcomes were jeopardized
CG and progesterone (pregnant baboons; vs saline controls): decreased

CCNC(=O)[C@@H]1CCCN1C(=O)[C@H](CCCNC(=N)N)NC(=O)[C@H](CC(C)C)NC(=O)[C@@H](Cc1c[nH]c2ccccc12)NC(=O)[C@H](Cc1ccc(O)cc1)NC(=O)[C@H](CO)NC(=O)[C@H](Cc1c[nH]c2ccccc12)NC(=O)[C@H](Cc1c[nH]cn1)NC(=O)[C@@H]1CCC(=O)N1 [^6D-Trp-GnRH-^10 ethylamide]
receptor activity/potency compared with GnRH [3]: twice as active

CCNC(=O)[C@@H]1CCCN1C(=O)[C@H](CCCNC(=N)N)NC(=O)[C@H](CC(C)C)NC(=O)[C@@H](Cc1cn(Cc2ccccc2)cn1)NC(=O)[C@H](Cc1ccc(O)cc1)NC(=O)[C@H](CO)NC(=O)[C@H](Cc1c[nH]c2ccccc12)NC(=O)[C@H](Cc1cnc[nH]1)NC(=O)[C@@H]1CCC(=O)N1 [^6Im-btl-D-His-GnRH^10 ethylamide, des-Gly^10-Im-Btl-D-His^6-GnRH-ethylamide]
receptor activity/potency compared with GnRH [3]: half the potency
receptor activity/potency compared with GnRH ([3]; listed as 6Im-btl-D-His-GnRH-^10 ethylamide): half the potency
receptor activity/potency compared with GnRH ([3]; listed as Im-Btl-His(6) analog): reduced receptor potency
degradation by / competition for C-ase-1, in words [2]: resistant to degradation

CCNC(=O)[C@@H]1CCCN1C(=O)[C@H](Cc1ccc(O)cc1)NC(=O)[C@H](Cc1c[nH]c2ccccc12)NC(=O)CNC(=O)[C@H](Cc1c[nH]cn1)NC(=O)[C@H](CO)NC(=O)[C@H](Cc1c[nH]c2ccccc12)NC(=O)[C@H](Cc1c[nH]cn1)NC(=O)[C@@H]1CCC(=O)N1 [chicken II GnRH ethylamide, chicken II GnRH-^10 ethylamide] ([pGlu]HWSHGWYP-NHEt)
receptor activity/potency compared with GnRH [3]: 33 fold
stability in whole placental homogenates (placental homogenate): more stable than the mammalian GnRH analogs

NC(=O)CNC(=O)[C@@H]1CCCN1C(=O)[C@H](Cc1ccc(O)cc1)NC(=O)[C@H](Cc1c[nH]c2ccccc12)NC(=O)CNC(=O)[C@H](Cc1c[nH]cn1)NC(=O)[C@H](CO)NC(=O)[C@H](Cc1c[nH]c2ccccc12)NC(=O)[C@H](Cc1c[nH]cn1)NC(=O)[C@@H]1CCC(=O)N1 [chicken II GnRH] ([pGlu]HWSHGWYPG-NH2; C-terminus assumed)
receptor binding potency compared with chicken II GnRH isoform or Buserelin ([3]; Buserelin label, Example II): equipotent to Buserelin
receptor binding potency compared with mammalian GnRH ([3]; Buserelin label, Example II): three-fold more potent
degradation/competition relative to mammalian GnRH ([1]; Example III): one-sixth
relative potency of inhibition of C-ase-1 degradation of GnRH, compared to GnRH [1]: 0.2
Ki ([1]; Example III): 200 nM
stability in whole placental homogenates (placental homogenate): more stable than the mammalian GnRH analogs

CCNC(=O)[C@@H]1CCCN1C(=O)[C@H](CCCNC(=N)N)NC(=O)[C@H](CC(C)C)NC(=O)CNC(=O)[C@H](Cc1ccc(O)cc1)NC(=O)[C@H](CO)NC(=O)[C@H](Cc1c[nH]c2ccccc12)NC(=O)[C@H](Cc1c[nH]cn1)NC(=O)[C@@H]1CCC(=O)N1 [des-Gly^10-GnRH-ethylamide] ([pGlu]HWSYGLRP-NHEt)
degradation by / competition for C-ase-1, in words [2]: potent competitive inhibitors

CC(C)C[C@H](NC(=O)[C@H](CO)NC(=O)[C@H](Cc1ccc(O)cc1)NC(=O)[C@H](Cc1c[nH]cn1)NC(=O)[C@@H]1CCC(=O)N1)C(=O)N[C@@H](CCC(=O)O)C(=O)N[C@@H](Cc1c[nH]c2ccccc12)C(=O)N[C@@H](CCCCN)C(=O)N1CCC[C@H]1C(=O)NCC(N)=O [lamprey GnRH] ([pGlu]HYSLEWKPG-NH2)
relative potency of inhibition of C-ase-1 degradation of GnRH, compared to GnRH [1]: 1.5
potency as competitor for GnRH degradation by C-ase-1 compared with GnRH ([1]; Example VII): as or even more potent than GnRH

CC(C)C[C@H](NC(=O)[C@H](Cc1c[nH]c2ccccc12)NC(=O)CNC(=O)[C@H](Cc1ccc(O)cc1)NC(=O)[C@H](CO)NC(=O)[C@H](Cc1c[nH]c2ccccc12)NC(=O)[C@H](Cc1c[nH]cn1)NC(=O)[C@@H]1CCC(=O)N1)C(=O)N1CCC[C@H]1C(=O)NCC(N)=O [salmon GnRH] ([pGlu]HWSYGWLPG-NH2)
relative potency of inhibition of C-ase-1 degradation of GnRH, compared to GnRH [1]: 0.2

^9OH-Pro-GnRH
relative potency of inhibition of C-ase-1 degradation of GnRH, compared to GnRH [1]: 1.5
potency as competitor for GnRH degradation by C-ase-1 compared with GnRH ([1]; Example VII): as or even more potent than GnRH

chicken II GnRH-^10 aza-Gly-amide
degradation by / competition for C-ase-1, in words [2]: resistant to degradation
